Values joined by “and” are separate entries in the source; they are usually repeats but may differ in a detail not shown here. Identical values can stand only once.
Assays:
[1] = Crystal, Calculated from knudsen effusion weight loss
[2] = molar enthalpy of vaporization or sublimation; details: 298.15 K; Crystal; Static calorimetry

O=[N+]([O-])c1ccccc1I [1-iodo-2-nitrobenzene]
[1]
Details	vapor or sublimation pressure
287.15 K	8.2e-05 kPa and 8.5e-05 kPa
289.14 K	0.000107 kPa and 0.000103 kPa
291.13 K	0.000139 kPa and 0.000141 kPa and 0.000135 kPa
293.14 K	0.000175 kPa and 0.000178 kPa and 0.000184 kPa
295.15 K	0.000224 kPa and 0.000226 kPa and 0.00023 kPa
297.14 K	0.000283 kPa and 0.000289 kPa and 0.000288 kPa
299.14 K	0.000373 kPa and 0.000375 kPa and 0.000374 kPa
301.14 K	0.000458 kPa and 0.000466 kPa and 0.000479 kPa
303.13 K	0.000609 kPa and 0.000616 kPa
305.14 K	0.000767 kPa and 0.000768 kPa and 0.000777 kPa
307.14 K	0.000974 kPa and 0.000975 kPa and 0.000998 kPa

Details	molar enthalpy [kcal/mol]
[2]	21.5

O=[N+]([O-])c1cccc(I)c1 [1-iodo-3-nitrobenzene]
[1]
Details	vapor or sublimation pressure
287.14 K	0.000148 kPa and 0.000145 kPa
289.15 K	0.000187 kPa and 0.000191 kPa
291.13 K	0.000238 kPa
293.13 K	0.000309 kPa and 0.000314 kPa
295.15 K	0.000392 kPa and 0.0004 kPa
297.14 K	0.000508 kPa and 0.000506 kPa
299.14 K	0.000641 kPa and 0.000643 kPa
301.14 K	0.000812 kPa
303.13 K	0.001033 kPa and 0.001074 kPa

Details	molar enthalpy [kcal/mol]
[2]	21.4

O=[N+]([O-])c1ccc(I)cc1 [1-iodo-4-nitrobenzene]
[1]
Details	vapor or sublimation pressure
311.18 K	9.7e-05 kPa and 9.4e-05 kPa and 9.3e-05 kPa
313.17 K	0.000121 kPa and 0.000114 kPa and 0.000118 kPa
315.11 K	0.000151 kPa and 0.00015 kPa and 0.000152 kPa
317.18 K	0.000179 kPa and 0.000193 kPa
319.13 K	0.00023 kPa and 0.000226 kPa
321.1 K	0.000282 kPa and 0.000277 kPa and 0.000283 kPa
323.18 K	0.000355 kPa and 0.000354 kPa and 0.000359 kPa
325.18 K	0.000451 kPa and 0.000436 kPa and 0.000455 kPa
327.12 K	0.00055 kPa and 0.000546 kPa and 0.000552 kPa
329.18 K	0.000672 kPa and 0.000673 kPa
331.18 K	0.000856 kPa and 0.00083 kPa and 0.000857 kPa
333.11 K	0.001045 kPa and 0.001036 kPa and 0.001018 kPa

Details	molar enthalpy [kcal/mol]
[2]	23.5

— the NIST ThermoML archive (doi:10.1016/j.jct.2012.09.031)
